For eight compounds, melting point and death results are on record in patent US7550476B2, “Condensed polycyclic compounds” (Mitsubishi Tanabe Pharma Corporation, priority 2001, dated 2009).

Where only a bound is given, the exact number is not on record here.

The test system of data set [1] is mouse (BDF1 strain, male). The data set can be described thus: Single-dose subcutaneous toxicity in mouse. The class given is in vivo. The following applies: single dose 100 mg/kg subcutaneously, n=3, checked for 1 day. The method, then: Further, the compounds [I] and compounds [I-C] of the present invention have the merit of being less toxic, and highly safe as a medicine. For example, 8,9-dimethoxy-6-phenyl-1,3,4,6,11,11a-hexahydro-2H-pyrazino[1,2-b]-isoquinoline was subcutaneously administered to a mouse (BDF1 strain, male, n=3) in a single dose (100 mg/kg) and the progress was checked for 1 day.

As for `COc1cc2c(cc1OC)C(c1ccccc1)N1CCN(Cc3ccccc3)CC1C2.Cl.Cl` (centres unmarked), the melting point was 198 to 203 °C (dec.).

For the compound `COc1cc2c(cc1OC)C(c1ccccc1)N1CCN(CSC)CC1C2.Cl.Cl` (centres unmarked), the melting point is 217 to 220 °C (dec.). Still for that read-out and setting: then `COc1cc2c(cc1OC)C(c1ccccc1)N1CCN(CC(=O)O)CC1C2.Cl.Cl` (centres unmarked), with 214 to 217 °C (dec.); and `COc1cc2c(cc1OC)C(c1ccccc1)N1CCN(C(=O)c3ccccc3)CC1C2.Cl` (centres unmarked), with 229 to 233 °C (dec.).

As to `COc1cc2cc(COC(C)=O)c(COC(C)=O)c(-c3ccnc(C4C(=O)CCCC4=O)c3)c2cc1OC`, the melting point fell in the range of 210 to 213 °C. The same measure, in the same setting: with `COc1cc2cc(CO)c(CO)c(-c3ccnc(C4C(=O)CCCC4=O)c3)c2cc1OC` the figure was greater than 220 °C; with `COc1cc2c(cc1OC)C(c1ccc(OC(C)C)cc1)N1CCNCC1C2.Cl.Cl` (centres unmarked), 180 to 185 °C (dec.). Regarding `COc1cc2c(cc1OC)C(c1ccccc1)N1CCNCC1C2` (centres unmarked) [Compound A, 8,9-dimethoxy-6-phenyl-1,3,4,6,11,11a-hexahydro-2H-pyrazino[1,2-b]isoquinoline], the death entry in data set [1] is listed as “no death was observed”.

By melting point is commonly meant the temperature of the solid-liquid transition.
